Tested on: LXRLI1 gene
Assay: Microarray gene expression profiles of cells treated with LXR-ligand
Assay type: cell-based, human
Settings: THP-1 cells, primary macrophages, primary hepatocytes; APD 0.001-0.1 μM, 6-24 hours; treated vs. untreated
From the text: To identify human transcripts up or down regulated by LXR-ligand, FlexJet™ microarrays representing either 25,000 Unigene clusters were hybridized to a mixture of cRNAs prepared from samples obtained from untreated versus treated cells of various types. Microarrays, and materials and methods for preparing hybridization samples from purified RNA, hybridizing the microarrays, detecting hybridization signals, and data analysis are described in van't Veer,iet al. (2002 Nature 415:530-536) and Hughes, et al. (2001 Nature Biotechnol. 19:342-7).
Experiments were conducted comparing gene expression profiles of primary hepatocytes, primary human macrophage and THP-1 cells treated with a variety of compounds known to activate the LXR and PPAR nuclear receptor regulated pathways. Additional compound treatments were performed which are known to cause an increase, or decrease in cellular cholesterol. All cells were cultured at 37° C. in a humidified atmosphere consisting of 95% air and 5% carbon dioxide. For each cell sample, mRNA was extracted and purified using Trizol reagent (Invitrogen Corporation, Carlsbad, Calif.) followed by DNAse treatment, as described by Fu, et al. (2001 J. Biol. Chem. 276:38378-87). For the primary hepatocytes, the Trizol purification was followed by a RNasy DNAase (Promega Corp, Madison, Wis.) step per the manufacturer's instructions. […]

CC(=O)Oc1ccc2c(c1)[C@@]1(C)CCC[C@](C)(C(=O)OC(=O)[C@@]3(C)CCC[C@]4(C)c5cc(OC(C)=O)ccc5CC[C@@H]34)[C@@H]1CC2 [APD, acetylpodocarpic dimer]
Transcription of the LXRLI1 gene: induced
